Source: patent US6858589B2, “Methods of and compositions for potentiating the action of agents active on cell wall sites of the susceptible bacteria” (priority 1996, dated 2005)
Converted amounts (≈) assume the structure as drawn. Like-named read-outs stand apart in the source and are kept apart here. Blank lines part the entries; values can stand above or below the compound they belong to.

Legend:
[1] = tested on: blood culture isolate of cMRSA; test: MIC and MBC for the cMRSA isolate; assay type: cell-based, Staphylococcus aureus; conditions: mecA positive
Procedure: The student test was used for statistical analysis with a significant level of 0.05, it was performed using the Sigma Stat 32 program (SPSS Inc 1992-1997).

[2] = tested on: Pseudomonas aeruoginosa, ATCC27853; test: MIC, Pseudomonas reference strain; assay type: cell-based, Pseudomonas aeruginosa
[3] = tested on: antibiotic resistant strain of Pseudomonas aeruoginosa isolated from a clinical patient; test: MIC, antibiotic resistant clinical Pseudomonas strain; assay type: cell-based, Pseudomonas aeruginosa
[4] = tested on: Pseudomonas aeruoginosa, ATCC27853; test: Tobramycin concentration-time profile kill study, reference strain; assay type: cell-based, Pseudomonas aeruginosa; conditions: 8 mg/l at 1 hour, reducing until 8.5 hr, then fixed 0.8 mg/l for 16 hours
Procedure: (§1) The range of aminoglycoside antibiotics was extended to include tobramycin, the bacterial species type was extended from Enterobacteriaceae to Pseudomonacea, and the organism response range broadened to include an antibiotic resistant strain in Pseudomonas studies.
(§2) In contrast, the resistant clinical strain required a peak concentration of 18 mg/l combined with a maintained level of 1 mg/l.

[5] = tested on: antibiotic resistant strain of Pseudomonas aeruoginosa isolated from a clinical patient; test: Tobramycin concentration-time profile kill study, resistant clinical strain; assay type: cell-based, Pseudomonas aeruginosa
Procedure: The time boundaries for maintained exposures with aminoglycoside may be 1.0-16 hours, while the required maintained concentrations will be a function of the resistance of the organism as determined by the minimum inhibitory concentration (MIC) of the pathogen isolated in culture and time-concentration requirements of the organism(s) being treated.
as §1, §2

[6] = tested on: E. coli NCTC 10418; test: E. coli exposed to constant concentrations of cephazolin alone; assay type: cell-based, Escherichia coli
From the text: In comparative experiments described in the examples herein, a reference strain of Escherichi coli (E. coli NCTC 10418) was exposed to constant concentrations of cephazolin in the culture medium (see FIGS. 1A and IIA). As these concentrations were varied, the growth of the bacterial culture was changed. […] As concentrations in the medium were increased, there was a major decline in numbers and a delay in regrowth.
The organisms in the media were able to maintain their numbers in a reduced state even in the continuing presence of cephazolin. This outcome is due to the exclusion of cephalosporins by porin channels in the outer cell wall and to the action of cephalosporinase which keeps cephazolin levels at the site(s) of action below that required for full bactericidal effect.
The cephalosporin effect reached a maximum when E. coli growth was reduced to 10 colony forming units(cfu)/ml (see FIG. IIB).

[7] = tested on: blood culture isolate of cMRSA; test: Kill kinetics and regrowth patterns of cMRSA exposed to gentamicin profiles and constant beta-lactam; assay type: cell-based, Staphylococcus aureus; conditions: for Outcome of exposure: each agent alone
Procedure: FIGS. 5a and 5b Kill kinetics and regrowth patterns of a clinical isolate of cMRSA.
The CMRSA isolate was cultured in the presence of gentamicin (Delta West, Bentleigh, Australia). An overnight culture of cMRSA in brain heart infusion broth (BHIB) (Oxoid, Bainstoke, England) was diluted to 10^7 CFU/ml in 0.1% peptone water (Oxoid, Bainstoke, England). A 1 ml sample of the 10^7 CFU/ml culture was added to the experimental culture broth, resulting in an initial density of 10^6 CFU/ml. In vitro concentration-time modeling of clinical plasma gentamicin concentration-time profiles assumed linear extrapolation of in vivo data as reported previously.^18 (Bastone et al Antimicrobial Agents and Chemotherapy 37(4): 914-917, 1993). […] Other profiles were constructed by linear extrapolation of these profiles and included 7 and 16 mg/l bolus and infusion profiles. Colony counts were performed at times 0, 0.5, 2.5, 4.5, 6.5, 8.5, 10.5, 24.5 and 48.5 hours for bolus profiles and times 0, 1, 3, 5, 7, 9, 11, 25 and 49 hours for infusion profiles.
In the experiments involving cephazolin the concentration was maintained at 4 mg/l in the BHIB for the entire 48.5 hours. For the experiments involving flucloxacillin the concentration of flucloxacillin was maintained at 2 mg/l for 48.5 hours. Colony counts were performed at times 0, 0,5, 2.5, 4.5, 6.5, 8.5, 10.5, 24.5 and 48.5 hours. […] These included cMRSA in a drug free broth, cMRSA exposed to a bolus profile of gentamicin with a target Cpeak 30 of 6 mg/l only, cMRSA exposed to […] of flucloxacillin only.
All experiments involved six replicates. Gentamicin concentrations were measured at times 0, 0.16, 0.33, 0.5, 2.5, 4.5, 6.5, 8.5, 10.5, 24.5 and 48.5 hours. Gentamicin assay concentrations were determined by fluorescence polarisation immunoassay (AxSYM, Abbot, Ill., U.S.A.) which has a threshold for detection of 0.3 mg/liter. […] (Gibaldi et al, pharmaceutics 2nd edn, 1982).
The blood culture cMRSA isolate was exposed to gentamicin in vitro simulating an in vivo bolus dosing regimen with varying 30 minute post dose concentrations of gentamicin. The same organism was then exposed to gentamicin in vitro simulating an in vivo bolus dosing regime with a 30 minute post dose concentration of 6 mg/l and constant concentration of 4 mg/l of cephazolin or 2 mg/l of flucloxacillin for 48 hours.

[8] = 4 mg/l cephazolin alone throughout

- MIC ([1]; Staphylococcus aureus, read-out: MIC): 32 µg/mL (≈ 84.1 µM)
Compound: COc1cccc(OC)c1C(=O)N[C@@H]1C(=O)N2[C@@H]1SC(C)(C)[C@@H]2C(=O)O [methicillin]
- MBC ([1]; Staphylococcus aureus, read-out: MBC): > 32 µg/mL

Compound: NC[C@H]1O[C@H](O[C@H]2[C@H](O)[C@@H](O[C@H]3O[C@H](CO)[C@@H](O)[C@H](N)[C@H]3O)[C@H](N)C[C@@H]2N)[C@H](N)C[C@@H]1O [tobramycin]
- MIC [2]: 1 µg/mL (≈ 2.14 µM)
- MIC [3]: 2 to 4 µg/mL (≈ 4.28 to 8.56 µM)
- Outcome of tobramycin profile [4]: complete kill
- Maintained level required ([5]; combined with 18 mg/l peak): 1 mg/L
- Peak concentration required ([5]; combined with maintained level): 18 mg/L

- MIC [1]: 32 µg/mL (≈ 70.4 µM)
Compound: Cc1nnc(SCC2=C(C(=O)O)N3C(=O)[C@@H](NC(=O)Cn4cnnn4)[C@H]3SC2)s1 [cephazolin]
- Outcome of exposure ([6]; cephalosporin alone, constant concentrations): not possible to produce a complete kill or eradication
- E. coli growth at maximum cephalosporin effect ([6]; constant concentrations of cephalosporin alone, up to 250 mg/l): 10 cfu/ml
- Growth of the culture ([6]; lowest concentration of cephazolin, 1.0 mg/l): delayed in relation to control
- Bacterial Count ([6]; maintained cephazolin 0.5 mg/L, 0 h): 5.88 ± 0.09 log 10 u/mL
- Bacterial Count ([6]; maintained cephazolin 0.5 mg/L, 2 h): 7.43 ± 0.28 log 10 u/mL
- Bacterial Count ([6]; maintained cephazolin 0.5 mg/L, 8 h): 8.67 ± 0.24 log 10 u/mL
- Bacterial Count ([6]; maintained cephazolin 0.5 mg/L, 24 h): 8.82 ± 0.06 log 10 u/mL
- Bacterial Count ([6]; maintained cephazolin 1.0 mg/L, 0 h): 5.83 ± 0.29 log 10 u/mL
- Bacterial Count ([6]; maintained cephazolin 1.0 mg/L, 2 h): 6.21 ± 0.76 log 10 u/mL
- Bacterial Count ([6]; maintained cephazolin 1.0 mg/L, 8 h): 8.59 ± 0.35 log 10 u/mL
- Bacterial Count ([6]; maintained cephazolin 1.0 mg/L, 24 h): 8.79 ± 0.05 log 10 u/mL
- Bacterial Count ([6]; maintained cephazolin 2.0 mg/L, 0 h): 5.88 ± 0.07 log 10 u/mL
- Bacterial Count ([6]; maintained cephazolin 2.0 mg/L, 2 h): 3.70 ± 0.32 log 10 u/mL
- Bacterial Count ([6]; maintained cephazolin 2.0 mg/L, 8 h): 4.98 ± 0.34 log 10 u/mL
- Bacterial Count ([6]; maintained cephazolin 2.0 mg/L, 24 h): 8.79 ± 0.05 log 10 u/mL
- Bacterial Count ([6]; maintained cephazolin 4.0 mg/L, 0 h): 5.88 ± 0.06 log 10 u/mL
- Bacterial Count ([6]; maintained cephazolin 4.0 mg/L, 2 h): 3.61 ± 0.22 log 10 u/mL
- Bacterial Count ([6]; maintained cephazolin 4.0 mg/L, 8 h): 4.38 ± 0.42 log 10 u/mL
- Bacterial Count ([6]; maintained cephazolin 4.0 mg/L, 24 h): 6.14 ± 0.93 log 10 u/mL
- Bacterial Count ([6]; maintained cephazolin 12.5 mg/L, 0 h): 5.85 ± 0.14 log 10 u/mL
- Bacterial Count ([6]; maintained cephazolin 12.5 mg/L, 2 h): 3.11 ± 0.26 log 10 u/mL
- Bacterial Count ([6]; maintained cephazolin 12.5 mg/L, 8 h): 2.18 ± 0.63 log 10 u/mL
- Bacterial Count ([6]; maintained cephazolin 12.5 mg/L, 24 h): 4.77 ± 1.89 log 10 u/mL
- Bacterial Count ([6]; maintained cephazolin 50 mg/L, 0 h): 5.93 ± 0.11 log 10 u/mL
- Bacterial Count ([6]; maintained cephazolin 50 mg/L, 2 h): 2.17 ± 0.39 log 10 u/mL
- Bacterial Count ([6]; maintained cephazolin 50 mg/L, 8 h): 1.55 ± 0.93 log 10 u/mL
- Bacterial Count ([6]; maintained cephazolin 50 mg/L, 24 h): 1.56 ± 1.14 log 10 u/mL
- Bacterial Count ([6]; maintained cephazolin 75 mg/L, 0 h): 5.82 ± 0.23 log 10 u/mL
- Bacterial Count ([6]; maintained cephazolin 75 mg/L, 2 h): 2.09 ± 0.29 log 10 u/mL
- Bacterial Count ([6]; maintained cephazolin 75 mg/L, 8 h): 1.11 ± 0.96 log 10 u/mL
- Bacterial Count ([6]; maintained cephazolin 75 mg/L, 24 h): 1.05 ± 1.23 log 10 u/mL
- Bacterial Count ([6]; maintained cephazolin 100 mg/L, 0 h): 5.85 ± 0.08 log 10 u/mL
- Bacterial Count ([6]; maintained cephazolin 100 mg/L, 2 h): 2.01 ± 0.26 log 10 u/mL
- Bacterial Count ([6]; maintained cephazolin 100 mg/L, 8 h): 0.86 ± 0.95 log 10 u/mL
- Bacterial Count ([6]; maintained cephazolin 100 mg/L, 24 h): 0.70 ± 0.78 log 10 u/mL
- Bacterial Count ([6]; maintained cephazolin 200 mg/L, 0 h): 5.86 ± 0.04 log 10 u/mL
- Bacterial Count ([6]; maintained cephazolin 200 mg/L, 2 h): 2.16 ± 0.24 log 10 u/mL
- Bacterial Count ([6]; maintained cephazolin 200 mg/L, 8 h): 0.78 ± 0.87 log 10 u/mL
- Bacterial Count ([6]; maintained cephazolin 200 mg/L, 24 h): 1.43 ± 0.74 log 10 u/mL
- Bacterial Count ([6]; maintained cephazolin 250 mg/L, 0 h): 5.81 ± 0.03 log 10 u/mL
- Bacterial Count ([6]; maintained cephazolin 250 mg/L, 2 h): 1.82 ± 0.44 log 10 u/mL
- Bacterial Count ([6]; maintained cephazolin 250 mg/L, 8 h): 1.22 ± 0.96 log 10 u/mL
- Bacterial Count ([6]; maintained cephazolin 250 mg/L, 24 h): 1.61 ± 0.86 log 10 u/mL
- MBC [1]: 32 µg/mL (≈ 70.4 µM)
- Time at which early bactericidal effect was evident [7, 8]: ≤ 2.5 h
- Time at which regrowth was evident [7, 8]: 24.5 h
- Outcome of exposure [7]: complete kill or eradication was not achieved

Compound: Cc1onc(-c2c(F)cccc2Cl)c1C(=O)N[C@@H]1C(=O)N2[C@@H]1SC(C)(C)[C@@H]2C(=O)O [flucloxacillin]
- Outcome of exposure [7]: complete kill or eradication was not achieved
